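Compound exposure: 48 hours, 5 concentrations, 96-well plates. TGI marks complete inhibition of growth.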

Among the test systems are SK-MEL-2 melanoma; HCT-15 colon; UO-31 renal; SF-268 CNS; RXF 393 renal; SF-295 CNS; ACHN renal; EKVX NSCLC; NCI/ADR-RES ovarian.
Holding throughout (test): NCI-60 cell line screen, 48 h

Take `O=C(CCN1CCCCC1CO)Nc1ccc2c(c1)C(=O)c1ccc(NC(=O)CCN3CCCCC3CO)cc1C2=O` (stereo unspecified): the TGI in the assay on SK-MEL-2 melanoma was 18.8 µM; in the assay with HCT-15 colon, 54 µM; in the assay with UO-31 renal, 26.7 µM; with SF-268 CNS, 40.6 µM; in the assay on RXF 393 renal it was 7.45 µM; in the assay with SF-295 CNS, 62.6 µM. The TGI in the assay with ACHN renal was 32 µM; with EKVX NSCLC it was 47 µM.
With `COC(=O)C1(Cc2ccccc2)Cc2ccccc2C1=O` (stereo unspecified), the TGI in the assay on SK-MEL-2 melanoma was 65.5 µM; in the assay on HCT-15 colon, more than 100 µM; with UO-31 renal it was more than 100 µM; with NCI/ADR-RES ovarian, 72.3 µM; in the assay with SF-268 CNS, more than 100 µM; with SF-295 CNS it was more than 100 µM. Further, the TGI in the assay on ACHN renal and in the assay with EKVX NSCLC was more than 100 µM each time.
`CC(=O)Nc1ccc(C(=O)N2N=C(C)/C(=C/c3cccc(O)c3)C2=O)cc1`: the TGI with SK-MEL-2 melanoma, in the assay on HCT-15 colon, in the assay with UO-31 renal, in the assay with SF-268 CNS, in the assay on SF-295 CNS and with ACHN renal was more than 100 µM each time. Moreover, the TGI in the assay with EKVX NSCLC is more than 100 µM.
On to `CC(=O)OCC1OC(n2c3c(c(-c4ccco4)c(C#N)c2=S)CCCC3)C(OC(C)=O)C(OC(C)=O)C1OC(C)=O` (stereo unspecified), for which the TGI in the assay on SK-MEL-2 melanoma was more than 31.6 µM; in the assay with HCT-15 colon, more than 31.6 µM; in the assay with UO-31 renal it was more than 31.6 µM; in the assay with NCI/ADR-RES ovarian it was more than 31.6 µM; in the assay with SF-268 CNS, more than 31.6 µM; with SF-295 CNS, 21.5 µM. Further, the TGI in the assay with ACHN renal is more than 31.6 µM; in the assay with EKVX NSCLC, 29.8 µM.
With `COc1cc2c(cc1OC)C1Cc3ccccc3CN1CCC2` (stereo unspecified), the TGI in the assay on SK-MEL-2 melanoma, in the assay with HCT-15 colon, with NCI/ADR-RES ovarian, with SF-268 CNS, with RXF 393 renal and with SF-295 CNS was more than 100 µM in each case. For the same molecule, the TGI in the assay on ACHN renal and in the assay with EKVX NSCLC was more than 100 µM in each case.
With `Cc1c(-c2coc(-c3ccc(Cl)cc3)n2)c(=O)n(-c2ccccc2)n1C`, the TGI in the assay with SK-MEL-2 melanoma, with HCT-15 colon, in the assay on UO-31 renal, with SF-268 CNS, in the assay with SF-295 CNS and with ACHN renal was more than 100 µM in each case. Further, the TGI in the assay on EKVX NSCLC is more than 100 µM.
For the molecule `CCN(CC)c1ccc(C(=C2C=CC(=[N+](CC)CC)C=C2)c2ccccc2)cc1`, the TGI in the assay with SK-MEL-2 melanoma is 0.0889 µM; in the assay with HCT-15 colon, 0.587 µM; with UO-31 renal it was 0.185 µM; with SF-268 CNS it was 0.195 µM; with RXF 393 renal, 0.0989 µM; in the assay on SF-295 CNS, 0.0664 µM. Also, the TGI in the assay with ACHN renal came to 0.145 µM; in the assay on EKVX NSCLC, 0.581 µM.
For `O=C(CCCN1CCc2[nH]c3cc(F)ccc3c2C1)c1ccc(F)cc1`, the TGI with SK-MEL-2 melanoma worked out at 32.4 µM; in the assay with HCT-15 colon, 31.3 µM; with NCI/ADR-RES ovarian, 36.1 µM; with SF-268 CNS, 26.7 µM; with RXF 393 renal it was 28.3 µM; with SF-295 CNS, 32.7 µM. Moreover, the values for the TGI with ACHN renal and in the assay on EKVX NSCLC were 26.8 µM and 29.3 µM, respectively.
For `CCOc1cc(C=O)ccc1O`, the TGI in the assay on SK-MEL-2 melanoma, in the assay on HCT-15 colon, in the assay with UO-31 renal, with NCI/ADR-RES ovarian, in the assay on SF-268 CNS and in the assay on SF-295 CNS was more than 100 µM each time. For the same molecule, the TGI with ACHN renal and in the assay with EKVX NSCLC was more than 100 µM throughout.
Take `NC(CO)c1ccccc1` (stereo unspecified): the TGI in the assay on SK-MEL-2 melanoma, with HCT-15 colon, with UO-31 renal, in the assay with SF-268 CNS, in the assay on RXF 393 renal and in the assay with SF-295 CNS was more than 100 µM each time. The TGI in the assay with ACHN renal and in the assay with EKVX NSCLC was more than 100 µM in each case.
Regarding `COc1ccc(S(=O)(=O)Nc2ccc(-c3csc(N4C(=O)/C(=C/C=C\c5ccccc5)N=C4c4ccccc4)n3)cc2)cc1Cl`, the TGI with SK-MEL-2 melanoma is 56.3 µM; in the assay with HCT-15 colon, 51.5 µM; with UO-31 renal it was 58.6 µM; in the assay with NCI/ADR-RES ovarian, 73.8 µM; in the assay on SF-268 CNS, 56.3 µM; in the assay on RXF 393 renal, 62.5 µM. Also, the TGI in the assay on SF-295 CNS and in the assay on ACHN renal was more than 100 µM throughout.
Turning to `COc1cc2cc3c4c(cc(OC)c(OC)c4c2cc1OC)CCN3C(=O)OCCBr`, the TGI with SK-MEL-2 melanoma, in the assay with HCT-15 colon, in the assay with UO-31 renal, in the assay with SF-268 CNS, with RXF 393 renal and in the assay with SF-295 CNS was more than 100 µM throughout. Moreover, the TGI in the assay with ACHN renal and in the assay with EKVX NSCLC was more than 100 µM each time.
Regarding `C=C1C(=O)O[C@H]2C(=O)[C@H](C)CCC[C@@](C)(O)/C=C\C[C@@]3(C)O[C@@H]3C[C@@H]12`, the TGI in the assay with SK-MEL-2 melanoma is 41.5 µM; with HCT-15 colon, 25.9 µM; in the assay with UO-31 renal it was 27.6 µM; in the assay with NCI/ADR-RES ovarian, more than 100 µM; in the assay with SF-268 CNS, 50.8 µM; in the assay with SF-295 CNS, 17.5 µM. Besides, the TGI with ACHN renal amounted to 20.5 µM.

These data come from PubChem BioAssay (NCI).
